Read-outs that look alike come from different tables or passages of the source.
Experiments:
[1] = biological target: T1, GT1a D168A NS3/4A protease (UniProt P27958, C1185S/D1194A, species not given); type: biochemical, Hepatitis C virus; settings: read-out: Ki (nM) GT1a D168A NS3/4A Protease
T1 construct: Ki (nM) GT1a D168A NS3/4A Protease
Summary of the method: (§1)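 NS3/4A protease (2 nM; wild-type GT1a or D168A) pre-incubated 1 h at room temperature with increasing inhibitor in 50 mM Tris pH 7.5, 5% glycerol, 10 mM DTT, 0.6 mM LDAO, 4% DMSO. Ki from three independent data sets per construct; ΔG=RTlnKi.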

[2] = biological target: GT1a D168A NS3/4A protease; type: biochemical, Hepatitis C virus; settings: Table 3; Ki D168A relative to GT1a WT
Summary of the method: as §1

[3] = biological target: T2, wild-type GT1a NS3/4A protease (UniProt P27958, C1185S, species not given); type: biochemical, Hepatitis C virus; settings: read-out: Ki (nM) GT1a WT NS3/4A Protease
T2 construct: Ki (nM) GT1a WT NS3/4A Protease
Summary of the method: as §1

[4] = tested on: wild-type HCV replicon in Huh7 cells; experiment: Cell-based drug susceptibility (replicon) assay, wild-type; settings: Hepatitis C virus, read-out: Replicon EC50 (nM) WT
Summary of the method: (§2)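 Con1 (genotype 1b) luciferase reporter replicon carrying H77 (genotype 1a) NS3, with variants made by site-directed mutagenesis, was electroporated into Huh7 cells. Cells were exposed to increasing protease inhibitor concentrations, and replication was read as luciferase activity (relative light units) 96 h after electroporation.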

[5] = tested on: HCV replicon R155K variant in Huh7 cells; experiment: microbe, parasite or virus in culture; type: cell-based, Hepatitis C virus; settings: for EC50: Hepatitis C virus; for Replicon EC50 (Fold change) R155K: Table 4, relative to WT replicon
Summary of the method: as §2

[6] = tested on: HCV replicon D168A variant in Huh7 cells; experiment: microbe, parasite or virus in culture; type: cell-based, Hepatitis C virus; settings: for EC50: Hepatitis C virus; for Replicon EC50 (Fold change) D168A: Table 4, relative to WT replicon
Summary of the method: as §2

[7] = tested on: HCV replicon A156T variant in Huh7 cells; experiment: microbe, parasite or virus in culture; type: cell-based, Hepatitis C virus; settings: for EC50: Hepatitis C virus; for Replicon EC50 (Fold change) A156T: Table 4, relative to WT replicon
Summary of the method: as §2

[8] = rcm bond, 15-membered ring, Zhan 1b, 1,2-DCE
[9] = tested on: HCV replicon D168V variant in Huh7 cells; experiment: microbe, parasite or virus in culture; type: cell-based, Hepatitis C virus; settings: for EC50: Hepatitis C virus; for Replicon EC50 (Fold change) D168V: Table 4, relative to WT replicon
Summary of the method: as §2

GT3a NS3/4A protease = biological target: T3, GT3a NS3/4A protease (Hepatitis C virus genotype 3a, UniProt Q81495); experiment: biochemical
T3 construct: drug-resistant variant D168A, and GT3a NS3/4A protease; made in house; host or cells: Escherichia coli BL21(DE3)
T3 sequence (Q81495 1033-1214): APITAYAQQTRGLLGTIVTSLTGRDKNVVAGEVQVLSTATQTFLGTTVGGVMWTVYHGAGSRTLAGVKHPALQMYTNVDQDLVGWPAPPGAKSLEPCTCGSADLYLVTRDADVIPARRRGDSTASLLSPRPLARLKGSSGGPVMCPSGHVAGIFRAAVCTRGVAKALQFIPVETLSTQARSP
Description: For each assay, 2 nM of NS3/4A protease (GT1, D168A and GT3) was pre-incubated at room temperature for 1 h with increasing concentration of inhibitors in assay buffer [50 mM Tris, 5% glycerol, 10 mM DTT, 0.6 mM LDAO, and 4% dimethyl sulfoxide]. Inhibition assays were performed in nonbinding surface 96-well black half-area plates (Corning) in a reaction volume of 60 μt. […] Three independent data sets were collected for each inhibitor with each protease construct.

[10] = Huh-7, 96 h, Table 2, Huh7 cells, luciferase 96 h
[11] = Huh-7, 96 h, read-out: Replicon EC50 (nM) R155K, Table 2, Huh7 cells, luciferase 96 h
[12] = Huh-7, read-out: Replicon EC50 (nM) R155K, Table 4
[13] = Huh-7, 96 h, read-out: Replicon EC50 (nM) D168A, Table 2, Huh7 cells, luciferase 96 h
[14] = Huh-7, read-out: Replicon EC50 (nM) D168A, Table 4
[15] = Huh-7, 96 h, read-out: Replicon EC50 (nM) A156T, Table 2, Huh7 cells, luciferase 96 h
[16] = Huh-7, read-out: Replicon EC50 (nM) A156T, Table 4
[17] = Huh-7, 96 h, read-out: Replicon EC50 (nM) D168V, Table 2, Huh7 cells, luciferase 96 h
[18] = Huh-7, read-out: Replicon EC50 (nM) D168V, Table 4

| Compound | Ki ([1]; Table 1) | Ki ([1]; Table 3) | Ki (Fold change) GT1a D168A NS3/4A Protease [2] | Ki ([3]; Table 1) | Ki ([3]; Table 3) | EC50 [4, 10] | EC50 ([4]; Huh-7, Table 4) | EC50 [5, 11] | EC50 [5, 12] | Replicon EC50 (Fold change) R155K [5] | EC50 [6, 13] | EC50 [6, 14] | Replicon EC50 (Fold change) D168A [6] | EC50 [7, 15] | EC50 [7, 16] | Replicon EC50 (Fold change) A156T [7] | EC50 [9, 17] | EC50 [9, 18] | Replicon EC50 (Fold change) D168V [9] | other results |
| --- | --- | --- | --- | --- | --- | --- | --- | --- | --- | --- | --- | --- | --- | --- | --- | --- | --- | --- | --- | --- |
| COc1ccc2nc(C(C)C)c(O[C@@H]3C[C@H]4C(=O)N[C@]5(C(=O)NS(=O)(=O)C6(C)CC6)C[C@H]5/C=C\CCCCC[C@H](NC(=O)OC(C)(C)C)C(=O)N4C3)nc2c1 [Compound 19e, tert-Butyl ((2R,6S,13aS,14aR,16aS,Z)-2-((3-isopropyl-7-methoxyquinoxalin-2-yl)oxy)-14a-(((1-methylcyclopropyl)sulfonyl)carbamoyl)-5,16-dioxo-1,2,3,5,6,7,8,9,10,11,13a,14,14a,15,16,16a-hexadecahydrocyclopropa[e]pyrrolo[1,2-a][1,4]diazacyclopentadecin-6-yl)carbamate] | 211 nM | 211 ± 19 nM | (364) fold | 0.58 nM | 0.58 nM | 1.86 nM | 1.86 nM | 4.14 nM | 4.14 nM | (2) fold | 11.9 nM | 11.9 nM | (6) fold | 21.2 nM | 21.2 nM | (11) fold | 18.1 nM | 18.1 nM | (10) fold | ring closure, isolated yield ([8]; 6.6 mM): 60% |
| COc1ccc2nc(C)c(O[C@@H]3C[C@H]4C(=O)N[C@]5(C(=O)NS(=O)(=O)C6CC6)C[C@H]5/C=C\CCCCC[C@H](NC(=O)OC(C)(C)C)C(=O)N4C3)nc2c1 [Compound 18b, tert-Butyl ((2R,6S,13aS,14aR,16aS,Z)-14a-((cyclopropylsulfonyl)carbamoyl)-2-((7-methoxy-3-methylquinoxalin-2-yl)oxy)-5,16-dioxo-1,2,3,5,6,7,8,9,10,11,13a,14,14a,15,16,16a-hexadecahydrocyclopropa[e]pyrrolo[1,2-a][1,4]diazacyclopentadecin-6-yl)carbamate] | 50.9 nM | 50.9 ± 3.7 nM | (15) fold | 3.4 nM | 3.4 nM | 0.39 nM | 0.39 nM | 1.17 nM | 1.17 nM | (3) fold | 4.24 nM | 4.24 nM | (11) fold | 5.95 nM | 5.95 nM | (15) fold | 3.17 nM | 3.17 nM | (8) fold | ring closure, isolated yield ([8]; 6.5 mM, 70.0 °C): 45%; Ki (GT3a NS3/4A protease): 152 nM; Ki (Fold change) GT3a NS3/4A Protease (GT3a NS3/4A protease; Table 3, Ki GT3a relative to GT1a WT): (45) fold |
| CC(C)(C)OC(=O)N[C@H]1CCCCC/C=C\[C@@H]2C[C@@]2(C(=O)NS(=O)(=O)C2CC2)NC(=O)[C@@H]2C[C@@H](Oc3nc4ccccc4nc3-c3cccs3)CN2C1=O [Compound 18f, tert-Butyl ((2R,6S,13aS,14aR,16aS,Z)-14a-((cyclopropylsulfonyl)carbamoyl)-5,16-dioxo-2-((3-(thiophen-2-yl)quinoxalin-2-yl)oxy)-1,2,3,5,6,7,8,9,10,11,13a,14,14a,15,16,16a-hexadecahydrocyclopropa[e]pyrrolo[1,2-a][1,4]diazacyclopentadecin-6-yl)carbamate, reference compound] | 1820 nM | 1820 ± 347 nM |  | 1.03 nM | 1.03 nM | 0.98 nM | 0.98 nM | 21.7 nM | 21.7 nM | (22) fold | 111 nM | 111 nM | (113) fold | 256 nM | 256 nM | (261) fold | 193 nM | 193 nM | (197) fold | ring closure, isolated yield ([8]; from C=CCCCCC[C@H](NC(=O)OC(C)(C)C)C(=O)N1C[C@H](Oc2nc3ccccc3nc2-c2cccs2)C[C@H]1C(=O)N[C@]1(C(=O)NS(=O)(=O)C2CC2)C[C@H]1C=C, 3.5 mM, 70.0 °C): 61%; ring closure, isolated yield ([8]; 3.5 mM): 61% |
| CCOC(=O)[C@@]12C[C@H]1/C=C\CCCCC[C@H](NC(=O)OC(C)(C)C)C(=O)N1C[C@H](Oc3nc4cc(OC)ccc4nc3C(F)(F)F)C[C@H]1C(=O)N2 |  |  |  |  |  |  |  |  |  |  |  |  |  |  |  |  |  |  |  | ring closure, isolated yield ([8]; from C=CCCCCC[C@H](NC(=O)OC(C)(C)C)C(=O)N1C[C@H](Oc2nc3cc(OC)ccc3nc2C(F)(F)F)C[C@H]1C(=O)N[C@]1(C(=O)OCC)C[C@H]1C=C, 6.7 mM, 70.0 °C, 5.0 h): 70% |
| CCc1nc2ccccc2nc1O[C@@H]1C[C@H]2C(=O)N[C@]3(C(=O)NS(=O)(=O)C4CC4)C[C@H]3/C=C\CCCCC[C@H](NC(=O)OC(C)(C)C)C(=O)N2C1 [Compound 18g, tert-Butyl ((2R,6S,13aS,14aR,16aS,Z)-14a-((cyclopropylsulfonyl)carbamoyl)-2-((3-ethylquinoxalin-2-yl)oxy)-5,16-dioxo-1,2,3,5,6,7,8,9,10,11,13a,14,14a,15,16,16a-hexadecahydrocyclopropa[e]pyrrolo[1,2-a][1,4]diazacyclopentadecin-6-yl)carbamate] | 190 nM | 190 ± 13 nM | (26) fold | 7.18 nM | 7.18 nM | 0.46 nM | 0.46 nM | 1.81 nM | 1.81 nM | (4) fold | 8.55 nM | 8.55 nM | (19) fold | 10.6 nM | 10.6 nM | (23) fold | 14 nM | 14 nM | (30) fold | ring closure, isolated yield ([8]; 6.9 mM): 60% |
| tert-Butyl 42R,6S,13aS,14aR,16aS,Z)-14a-((cyclopropylsulfonyl)carbamoyl)-2-((3-isopropyl-7-methoxyquinoxalin-2-yl)oxy)-5,16-dioxo-1,2,3,5,6,7,8,9,10,11,13a,14,14a,15,16,16a-hexadecahydrocyclopropa[e]pyrrolo[1,2-a][1,4]diazacyclopentadecin-6-yl)carbamate |  |  |  |  |  |  |  |  |  |  |  |  |  |  |  |  |  |  |  | ring closure, isolated yield ([8]; 6.6 mM, 70.0 °C): 58% |
